These are literature values, as cited in US20100099894A1, “Method for the Synthesis of Cyclic Acetals by the Reactive Extraction of a Polyol in a Concentrated Solution” (priority 2006, published 2010).

The conditions of the first data set: aqueous solution, at room temperature; data from Yaw's Handbook.
As to `CCCCCCC=O` [n-heptanal], the solubility in water is 1516 mg/kg. In the case of `CCCCC=O` [pentanal], the solubility in water is reported as 11700 mg/kg.

`CCCCCCCC=O` [n-octanal]: the solubility in water is recorded as 370 mg/kg. With `CC(C)C(=O)C(C)C` [diisopropyl ketone], the solubility in water is listed as 5700 mg/kg. Regarding `CC(C)CC(=O)CC(C)C` [diisobutyl ketone], the solubility in water is 2640 mg/kg. As for `CC(=O)c1ccccc1` [acetophenone], the solubility in water is reported as 6842 mg/kg. Turning to `O=Cc1ccccc1` [benzaldehyde], the solubility in water was 6570 mg/kg.

The data set is the same for the next values; noted with them: background description of Solketal.
For `CC1(C)OCC(CO)O1` (centres unmarked) [Solketal], the miscibility in water result is on record as “miscible in water”.
